From patent US11021481B2, “Substituted isoindolin-1-ones and 2,3-dihydro-1h-pyrrolo[3,4-c]pyridin-1-ones as HPK1 antagonists” (Nimbus Saturn, Inc., priority 2019, dated 2021)

Target: HPK1 (Homo sapiens (Human), UniProt Q92918)
Assay: HPK1 biochemical enzyme assay (microfluidic mobility shift assay)
Conditions: 1.5 nM HPK1, ATP 1 mM final, 30 min preincubation, 60 min at RT, Caliper EZ Reader; read-out: HPK1 1000UMATP caliper IC50
Summary of the method: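 Mobility shift readout of HPK1 activity after a 60 min RT reaction with 1 mM ATP, 1 μM substrate and 5 mM MgCl2. Enzyme/substrate mix was first exposed to compounds for 30 min, using ten-point curves topping at 3 μM final.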

Chain of HPK1 (Q92918 whole entry): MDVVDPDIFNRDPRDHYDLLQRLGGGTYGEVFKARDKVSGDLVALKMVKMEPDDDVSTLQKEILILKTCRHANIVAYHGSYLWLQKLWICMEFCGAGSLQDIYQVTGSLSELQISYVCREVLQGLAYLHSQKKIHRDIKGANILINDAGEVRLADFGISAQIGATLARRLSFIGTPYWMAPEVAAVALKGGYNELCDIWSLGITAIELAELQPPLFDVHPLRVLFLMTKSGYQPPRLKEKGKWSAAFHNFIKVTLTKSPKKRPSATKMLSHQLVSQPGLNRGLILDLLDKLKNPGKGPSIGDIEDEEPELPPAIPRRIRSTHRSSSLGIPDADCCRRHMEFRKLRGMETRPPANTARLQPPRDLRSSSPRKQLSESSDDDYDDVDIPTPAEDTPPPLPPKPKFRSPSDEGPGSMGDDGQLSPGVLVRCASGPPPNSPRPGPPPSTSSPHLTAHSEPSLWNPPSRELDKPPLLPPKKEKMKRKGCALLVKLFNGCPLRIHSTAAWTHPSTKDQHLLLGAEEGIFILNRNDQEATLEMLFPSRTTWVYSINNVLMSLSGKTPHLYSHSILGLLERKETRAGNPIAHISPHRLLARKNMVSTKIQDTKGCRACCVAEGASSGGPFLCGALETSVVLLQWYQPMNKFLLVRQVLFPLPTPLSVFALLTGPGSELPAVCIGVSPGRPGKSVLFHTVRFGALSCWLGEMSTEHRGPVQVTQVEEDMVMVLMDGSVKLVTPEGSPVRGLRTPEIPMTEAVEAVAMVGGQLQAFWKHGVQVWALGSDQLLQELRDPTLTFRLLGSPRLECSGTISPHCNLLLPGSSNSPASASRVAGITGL

IC50 [nM]	Structure (SMILES)
< 100	CN(C)Cc1nc(Nc2cnc(-c3ccnc4[nH]ccc34)c3c2C(=O)NC3)ccc1[C@H]1CCOC1 [I-767, (R)-7-((6-((dimethylamino)-methyl)-5-(tetrahydrofuran-3-yl)pyridin-2-yl)amino)-4-(1H-pyrrolo[2,3-b]pyridin-4-yl)-2,3-dihydro-1H-pyrrolo[3,4-c]pyridin-1-one]
< 100	CN(C)Cc1nc(Nc2cnc(-c3ccnc4c3ccn4C)c3c2C(=O)NC3)ccc1N1CCOCC1 [I-768, 7-((6-((dimethylamino)-methyl)-5-morpholinopy-ridin-2-yl)amino)-4-(1-methyl-1H-pyrrolo[2,3-b]pyridin-4-yl)-2,3-dihydro-1H-pyrrolo[3,4-c]pyridin-1-one]
< 100	CN(C)Cc1nc(Nc2cnc(-c3ccnc4c3ccn4C)c3c2C(=O)NC3)ccc1N1CCO[C@@H](C(C)(C)O)C1 [I-769, (R)-7-((6-((dimethylamino)-methyl)-5-(2-(2-hydroxypropan-2-yl)morpholino)pyridin-2-yl)amino)-4-(1-methyl-1H-pyrrolo[2,3-b]pyridin-4-yl)-2,3-dihydro-1H-pyrrolo[3,4-c]pyridin-1-one]
< 100	O=C1NCc2c(-c3cnc4cc(F)ccn34)ccc(Nc3ccc(C4CCOC4)c(CO)n3)c21 (centres unmarked) [I-771, 4-(7-fluoroimidazo [1,2-a]pyridin-3-yl)-7-((6-(hydroxymeth-yl]-5-(tetrahydrofuran-3-yl)pyridin-2-yl)amino)isoin-dolin-1-one]
< 100	CN(C)Cc1nc(Nc2ccc(-c3cnc4cc(F)ccn34)c3c2C(=O)NC3)ccc1N1CCO[C@H](C(C)(C)O)C1 [I-774, (S)-7-((6-((dimethylamino)-methyl)-5-(2-(2-hydroxypropan-2-yl)morpho-lino)pyridin-2-yl)amino)-4-(7-fluoroimidazo [1,2-a]pyridin-3-yl)isoindolin-1-one]
< 100	CN(C)Cc1nc(Nc2ccc(-c3cnc4cc(F)ccn34)c3c2C(=O)NC3)ccc1N1CCO[C@@H](C(C)(C)O)C1 [I-775, (R)-7-((6-((dimethylamino)-methyl)-5-(2-(2-hydroxypropan-2-yl)morpho-lino)pyridin-2-yl)amino)-4-(7-fluoroimidazo [1,2-a]pyridin-3-yl)isoindolin-1-one]
< 100	CN(C)Cc1nc(Nc2cnc(-c3ccnc4c3ccn4C)c3c2C(=O)NC3)ccc1N1CCC(O)CC1 [I-776, 7-((6-((dimethylamino)-methyl)-5-(4-hydroxypiperidin-1-yl)pyridin-2-yl)amino)-4-(1-methyl-1H-pyrrolo[2,3-b]pyridin-4-yl)-2,3-dihydro-1H-pyrrolo[3,4-c]pyridin-1-one]

The next lines start with the molecule.

Structure (SMILES)	IC50 [nM]
O=C1NCc2c(-c3cnc4cc(F)ccn34)ccc(Nc3ccc([C@H]4CCOC4)c(CN4CCC4)n3)c21 [I-756, (R)-7-((6-(azetidin-1-ylmethyl)-5-(tetrahydrofuran-3-yl)pyridin-2-yl)amino)-4-(7-fluoroimidazo [1,2-a]pyridin-3-yl)isoindolin-1-one]	< 100
O=C1NCc2c(-c3cnc4cc(F)ccn34)ccc(Nc3ccc([C@H]4CCOC4)c(CN4CC(F)C4)n3)c21 [I-762, (R)-7-((6-((3-fluoroazetidin-1-yl)methyl)-5-(tetrahydrofuran-3-yl)pyridin-2-yl)amino)-4-(7-fluoroimidazo [1,2-a]pyridin-3-yl)isoindolin-1-one]	< 100
CN(C)Cc1nc(Nc2cnc(-c3ccnc4[nH]ccc34)c3c2C(=O)NC3)ccc1[C@@H]1CCOC1 [I-766, (S)-7-((6-((dimethylamino)-methyl)-5-(tetrahydrofuran-3-yl)pyridin-2-yl)amino)-4-(1H-pyrrolo[2,3-b]pyridin-4-yl)-2,3-dihydro-1H-pyrrolo[3,4-c]pyridin-1-one]	< 100
CN(C)Cc1nc(Nc2cnc(-c3ccnc4c3ccn4C)c3c2C(=O)NC3)ccc1N1CCO[C@H](C(C)(C)O)C1 [I-770, (S)-7-((6-((dimethylamino)-methyl)-5-(2-(2-hydroxypropan-2-yl)morpholino)pyridin-2-yl)amino)-4-(1-methyl-1H-pyrrolo[2,3-b]pyridin-4-yl)-2,3-dihydro-1H-pyrrolo[3,4-c]pyridin-1-one]	< 100
